Laboratory results reported in patent US20100179176A1, “V3 ANTAGONISTS FOR THE TREATMENT OR PREVENTION OF CHRONIC PAIN” (N.V. Organon, priority 2007, published 2010).

Tests used:
[1] = test system: mechanical allodynia induced by spinal nerve ligation in rats; assay: Rat (Chung) model of neuropathic pain, von Frey paw withdrawal threshold; assay type: in vivo; details: for Withdrawal threshold (g) at peak effect: spinal nerve ligation; for Effect on mechanical allodynia (in words): oral administration, three doses; for ED50: po, read-out: ED50 at peak effect (dose at which allodynia is reversed by 50%)
Protocol: In this model, mechanical allodynia is induced by tight ligation of the left L5 spinal nerve.
Male Wistar rats (150-175 g body weight at time of surgery) were employed in the study. Rats were placed on an elevated (˜40 cm) mesh floor in perspex boxes and the rats' withdrawal threshold to a mechanical stimulus (calibrated von Frey filaments) was measured using filaments of increasing force (2.6-167 mN). The von Frey filaments were applied to the plantar surface of the paw and the thershold response was determined using the up and down method. A positive response was noted if the paw was sharply withdrawn. A cut-off of 15 g was selected as the upper limit for testing. Following baseline measurements each animal was anaesthetised and the L5 spinal nerve tightly ligated. The animals were allowed to recover from the surgery for a period of at least three days. On the day of drug administration the paw withdrawal thresholds were re-measured (0 min). Immediately after this reading, the rats were dosed orally with vehicle or test compound. Readings were then made at intervals of 30, 60, 120, 180 and 240 min after compound administration.
Data were expressed as mean±s.e.m. The time of maximum effect for each animal in the top dose group was determined and these values averaged to calculate the mean time of maximum effect. For analytical purposes the time of maximum effect, tmax was defined as the time point closest to this averaged value. Data at tmax were compared between groups using the Kruskal-Wallis one-way analysis of variance, a non-parametric statistical test. Each of the treatment groups were then compared against the vehicle group, using the non-parametric Dunn's test. The ED50 (dose at which allodynia is reversed by 50%) value was also calculated at tmax using non linear regression (sigmoidal dose response; variable slope) with constants of 0 and 15 g (cut-off) for the bottom and top, respectively (XLFit software).

[2] = test system: tail flick latency in mice; assay: Mouse tail flick assay of acute thermal pain; assay type: in vivo; details: for Tail Flick Latency: mouse; for Effect on tail flick latencies (in words): oral administration, three doses, mouse, 20, 40 and 60 min post administration
Protocol: The tail flick test is used to evaluate the antinociceptive activity of test compounds in mice. Animals are placed on the tail flick apparatus and their tails exposed to a focused beam of radiant heat. The mice react to the noxious thermal stimulus by flicking their tail away from the heat source. The time taken for these responses to occur is measured (latency; s).
Experiments were performed using male ICR mice weighing (25-32 g). In brief, animals were held in place on the tail flick apparatus (Ugo Basile, Italy) by means of a perspex restrainer and their tail was positioned over the heat source. The latency to flick the tail from the radiant heat source focussed 2.5 cm from the tip was determined before (baseline readings) and at regular intervals after administration of the vehicle or test compounds (compound 1, 5.6-55.6 μmol/kg p.o.; compound 2, 5.3-52.6 μmol/kg p.o.). A 12 seconds cut-off was employed to prevent tissue damage.
Data are expressed as mean±s.e.m. and compared between groups using the Kruskal-Wallis one-way analysis of variance, a non-parametric statistical test. If statistical significance (P<0.05) is observed with this test, the vehicle group and each of the treatment groups is compared using the non-parametric Dunn's test.

[3] = test system: mechanical hyperalgesia induced by complete Freund's adjuvant in rats; assay: Rat CFA model of inflammatory pain, Randall-Sellito paw withdrawal threshold; assay type: in vivo; details: for % Attenuation of hyperalgesia (peak effect): 7 days after CFA, peak effect 30 min
Protocol: In this model, inflammation is induced by subcutaneous injection of complete Freund's adjuvant (CFA) into the hind paw. The associated mechanical hyperalgesia is quantified by measuring the reduction in paw withdrawal threshold (PWT) to a mechanical compression of the paw.
Experiments were in male Wistar rats weighing (130-180 g). In brief, the rats' paw withdrawal threshold (PWT) to a mechanical compression of the hind paw was measured (baseline reading) using a Randall-Sellito apparatus (Ugo Basile). A cut-off of 200 g was employed to minimise tissue damage to the paw. The animals were then lightly anaesthetised with isoflurane (1-3%) and CFA (0.1 ml·paw^−1) injected subcutaneously (s.c.) into the plantar surface of the left hind paw. The animals were then returned to their home cage and left for the inflammation to develop.
Seven days after CFA injection, PWT's were re-measured (0 min) and immediately after this reading, rats were dosed orally with either vehicle or compound 2 (3-30 mg/kg). Readings were then made at 30 min and 2 h post drug administration.
Data were plotted as mean±s.e.m. and compared between groups using the Kruskal-Wallis one-way analysis of variance, a non-parametric statistical test. […] The percent attenuation of mechanical hyperalgesia is calculated at time of peak effect (tmax)

[4] = test system: tolerance development to the analgesic activity of morphine; details: Database WPI, Derwent abstract; cited from earlier work

CC(C)NC(=O)Cn1c(-c2cccc(Cl)c2)nc2ccc(OCCCN3CCCCC3)cc2c1=O [Compound 2]
Withdrawal threshold (g) at peak effect ([1]; 5.3 μmol/kg p.o., peak effect 30 min): 4.8 ± 1.0 g
Withdrawal threshold (g) at peak effect ([1]; 17.3 μmol/kg p.o., peak effect 30 min): 6.7 ± 1.1 g
Withdrawal threshold (g) at peak effect ([1]; 52.6 μmol/kg p.o., peak effect 30 min): 9.8 ± 1.8 g
Effect on mechanical allodynia (in words) [1]: reversed mechanical allodynia in a dose-dependent fashion
Time of peak anti-allodynic effect post drug administration ([1]; p.o.): 30 min
ED50 at peak effect (dose at which allodynia is reversed by 50%) ([1]; p.o., at tmax): 21.0 µmol/kg
Tail Flick Latency ([2]; 5.3 μmol/kg p.o., 20 min post dose): 3.4 ± 0.2 s
Tail Flick Latency ([2]; 5.3 μmol/kg p.o., 40 min post dose): 3.7 ± 0.2 s
Tail Flick Latency ([2]; 5.3 μmol/kg p.o., 60 min post dose): 3.6 ± 0.1 s
Tail Flick Latency ([2]; 17.3 μmol/kg p.o., 20 min post dose): 3.6 ± 0.1 s
Tail Flick Latency ([2]; 17.3 μmol/kg p.o., 40 min post dose): 3.6 ± 0.1 s
Tail Flick Latency ([2]; 17.3 μmol/kg p.o., 60 min post dose): 3.1 ± 0.1 s
Tail Flick Latency ([2]; 52.6 μmol/kg p.o., 20 min post dose): 3.5 ± 0.2 s
Tail Flick Latency ([2]; 52.6 μmol/kg p.o., 40 min post dose): 3.5 ± 0.2 s
Tail Flick Latency ([2]; 52.6 μmol/kg p.o., 60 min post dose): 3.2 ± 0.2 s
Effect on tail flick latencies (in words) [2]: had no effect on tail flick latencies
% Attenuation of hyperalgesia (peak effect) ([3]; 5.7 μmol/kg p.o.): 31.5 ± 9.4%
% Attenuation of hyperalgesia (peak effect) ([3]; 18.9 μmol/kg p.o.): 43.1 ± 8.6 %
% Attenuation of hyperalgesia (peak effect) ([3]; 56.6 μmol/kg p.o.): 84.4 ± 12.0 %
Effect on mechanical hyperalgesia induced by CFA (in words) ([3]; oral administration 5.7, 18.9 or 56.6 μmol/kg): reversed mechanical hyperalgesia induced by CFA in a dose-dependent fashion
ED50 at peak effect (mechanical hyperalgesia) ([3]; p.o., CFA): 19.2 µmol/kg
Time of peak anti-algesic effect post drug administration ([3]; p.o., CFA): 30 min

COc1ccc(S(=O)(=O)N2C(=O)[C@@](c3ccccc3OC)(N3C[C@H](O)C[C@H]3C(=O)N(C)C)c3cc(Cl)ccc32)c(OC)c1 [Compound 3, reference compound]
Effect on tolerance development to the analgesic activity of morphine (in words) [4]: inhibits the tolerance development to the analgesic activity of morphine
Withdrawal threshold (g) at peak effect ([1]; 3 μmol/kg p.o., peak effect 180 min): 5.0 ± 1.0 g
Withdrawal threshold (g) at peak effect ([1]; 10 μmol/kg p.o., peak effect 180 min): 6.9 ± 1.3 g
Withdrawal threshold (g) at peak effect ([1]; 30 μmol/kg p.o., peak effect 180 min): 10.1 ± 1.4 g
Effect on mechanical allodynia (in words) [1]: reversed mechanical allodynia in a dose-dependent fashion
Time of peak anti-allodynic effect post drug administration ([1]; p.o.): 180 min
ED50 ([1]; at tmax): 10.6 µmol/kg

COc1cc(-c2nc3ccc(-c4cccc(CN(C)C)c4)cc3c(=O)n2CC(=O)NC(C)C)ccc1F [Compound 1, 2-[6-(3-Dimethylaminomethylphenyl)-2-(4-fluoro-3-methoxyphenyl)-4-oxo-4H-quinazolin-3-yl]-N-isopropylacetamide]
Withdrawal threshold (g) at peak effect ([1]; 5.6 μmol/kg p.o., peak effect 120 min): 4.6 ± 0.6 g
Withdrawal threshold (g) at peak effect ([1]; 18.6 μmol/kg p.o., peak effect 120 min): 5.6 ± 1.1 g
Withdrawal threshold (g) at peak effect ([1]; 55.6 μmol/kg p.o., peak effect 120 min): 11.4 ± 0.7 g
Effect on mechanical allodynia (in words) [1]: reversed mechanical allodynia in a dose-dependent fashion
Time of peak anti-allodynic effect post drug administration ([1]; p.o.): 120 min
ED50 ([1]; at tmax): 21.2 µmol/kg
Tail Flick Latency ([2]; 5.6 μmol/kg p.o., 20 min post dose): 3.5 ± 0.4 s
Tail Flick Latency ([2]; 5.6 μmol/kg p.o., 40 min post dose): 3.4 ± 0.2 s
Tail Flick Latency ([2]; 5.6 μmol/kg p.o., 60 min post dose): 3.5 ± 0.2 s
Tail Flick Latency ([2]; 18.6 μmol/kg p.o., 20 min post dose): 3.4 ± 0.3 s
Tail Flick Latency ([2]; 18.6 μmol/kg p.o., 40 min post dose): 3.5 ± 0.2 s
Tail Flick Latency ([2]; 18.6 μmol/kg p.o., 60 min post dose): 3.1 ± 0.2 s
Tail Flick Latency ([2]; 55.6 μmol/kg p.o., 20 min post dose): 3.3 ± 0.3 s
Tail Flick Latency ([2]; 55.6 μmol/kg p.o., 40 min post dose): 3.5 ± 0.3 s
Tail Flick Latency ([2]; 55.6 μmol/kg p.o., 60 min post dose): 3.3 ± 0.2 s
Effect on tail flick latencies (in words) [2]: had no effect on tail flick latencies
